Results on 16 molecules are retold here after BindingDB's records for PubMed 10215699 (Gliatech, 1999).

One may read the Ki as the equilibrium dissociation constant of an inhibitor or competing ligand from its target.

Targets include Hrh3 protein (Rattus norvegicus, UniProt Q5PPG3); Histamine H2 receptor (Homo sapiens, UniProt P25021); Histamine H3 receptor (Homo sapiens, UniProt Q9Y5N1).

“And” between values parts separate entries of the source, which are not always exact repeats. Identical values can stand only once.

Hrh3 protein, sequence (Q5PPG3 whole entry): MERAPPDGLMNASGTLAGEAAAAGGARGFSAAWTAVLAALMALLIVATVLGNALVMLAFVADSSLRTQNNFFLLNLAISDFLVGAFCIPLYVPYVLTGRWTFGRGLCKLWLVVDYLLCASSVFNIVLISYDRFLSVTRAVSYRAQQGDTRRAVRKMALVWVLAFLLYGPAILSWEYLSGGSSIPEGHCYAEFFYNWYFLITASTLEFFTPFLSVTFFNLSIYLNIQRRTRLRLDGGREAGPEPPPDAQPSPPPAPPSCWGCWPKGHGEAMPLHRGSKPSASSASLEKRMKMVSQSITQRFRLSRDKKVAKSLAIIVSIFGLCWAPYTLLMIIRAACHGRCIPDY
Histamine H3 receptor, sequence (Q9Y5N1 whole entry): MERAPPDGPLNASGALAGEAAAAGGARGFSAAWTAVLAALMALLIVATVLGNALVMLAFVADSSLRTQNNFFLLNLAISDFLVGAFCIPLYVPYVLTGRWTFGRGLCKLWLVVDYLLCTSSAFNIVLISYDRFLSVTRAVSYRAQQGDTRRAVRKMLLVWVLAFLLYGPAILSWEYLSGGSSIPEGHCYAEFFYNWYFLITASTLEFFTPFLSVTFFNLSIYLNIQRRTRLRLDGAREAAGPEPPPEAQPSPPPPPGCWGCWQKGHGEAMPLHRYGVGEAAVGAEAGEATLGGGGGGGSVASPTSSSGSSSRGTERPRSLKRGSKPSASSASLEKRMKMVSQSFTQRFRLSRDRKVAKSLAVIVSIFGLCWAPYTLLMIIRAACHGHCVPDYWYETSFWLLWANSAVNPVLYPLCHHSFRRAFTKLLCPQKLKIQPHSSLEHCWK
Histamine H2 receptor, sequence (P25021 whole entry): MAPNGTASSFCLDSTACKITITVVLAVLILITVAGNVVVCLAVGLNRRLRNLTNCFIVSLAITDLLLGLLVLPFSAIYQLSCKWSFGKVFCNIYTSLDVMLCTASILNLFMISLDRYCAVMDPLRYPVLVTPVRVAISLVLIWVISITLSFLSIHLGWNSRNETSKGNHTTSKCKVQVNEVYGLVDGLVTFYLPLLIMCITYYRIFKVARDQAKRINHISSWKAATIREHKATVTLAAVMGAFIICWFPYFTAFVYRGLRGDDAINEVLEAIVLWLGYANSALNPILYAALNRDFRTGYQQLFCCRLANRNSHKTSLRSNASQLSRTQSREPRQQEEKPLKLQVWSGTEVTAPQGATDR

In turn, `N[C@@H](Cc1ccccc1)C(=O)NCCc1c[nH]cn1` [GT 2130] yielded a Ki at Hrh3 protein of 104 nM.

Take `CN[C@@H](Cc1ccccc1)C(=O)NCCc1c[nH]cn1` [GT 2142]: the inhibition constant Ki at Hrh3 protein was determined as 1590 nM. With `N[C@@H](CCc1ccccc1)C(=O)NCCc1c[nH]cn1` [GT 2148], at Hrh3 protein, the affinity, expressed as Ki, was 11 nM. Still for that read-out and setting: with `C(#CCCc1c[nH]cn1)CCCC1CCCCC1` [GT 2287] the figure was 3.4 nM. On the same count and under the same terms, then `N[C@H](C(=O)NCCc1c[nH]cn1)c1ccccc1` [GT 2146], with 630 nM; and `C(=CCCc1cnc[nH]1)CCc1ccccc1` [GT 2327], with 5.5 nM. Consider `c1ncc(CCCCCCC2CCCCC2)[nH]1` [GT 2321], for which the affinity on Hrh3 protein corresponds to a Ki of 75 nM. As to `C(=CCCC1CCCCC1)CCc1cnc[nH]1` [GT 2228], the Ki at Histamine H2 receptor was 4470 nM; on Histamine H3 receptor, 3.2 nM; at Hrh3 protein, 4.2 nM and 15.2 nM. `N[C@@H](CC1CCCCC1)C(=O)NCCc1cnc[nH]1` [GT 2140]: the Ki at Hrh3 protein was determined as 31 nM. The molecule `C(#CCCC1CCCCC1)CCc1c[nH]cn1` [GT 2260] came in with a Ki on Hrh3 protein of 2.9 nM. For the molecule `C(#Cc1c[nH]cn1)CCCC1CCCCC1` [GT 2288], the Ki on Hrh3 protein was found to be 1030 nM. As for `N[C@H](Cc1ccccc1)C(=O)NCCc1c[nH]cn1` [GT 2136], on Hrh3 protein, affinity was put at a Ki of 2810 nM. On the same count and under the same terms, with `O=C(CCCC1CCCCC1)NCCc1cnc[nH]1` [GT 2174] the figure was 16 nM. On Hrh3 protein, `CC(C)(C)CCC#CCCc1c[nH]cn1` displayed a Ki of 0.83 nM.

`N[C@H](C=CCCc1cnc[nH]1)CC1CCCCC1` [GT 2231] had an inhibitory constant (Ki) on Hrh3 protein of 1 nM. The same measure, in the same setting: with `C(#CCCC1CCCC1)CCc1c[nH]cn1` [GT 2286] the figure was 0.95 nM.
